What was measured:
[1] = test system: Type I Collagen gene Col1a1 expression; test: Precision cut lung slices of mice under acute bleomycin exposure; type: cell-based, mouse
Procedure: Mice (C57BL/6) were administered 3 U/kg of bleomycin (Teva Pharmaceuticals; North Wales, PA) on day 0 via oropharyngeal aspiration while under anesthesia. On day 14, precision cut lung slices were obtained. Following euthanization, 2% low gelling temp agarose was injected into the mouse lungs via the trachea. […] The lobes were then subjected to precision slicing to obtain samples for culture using a microtome (Compresstome VF-300-0Z, Precisionary; Greenville, NC). Individual slices were distributed in a multiwell culture plate and cultured for 3 days under control (DMSO) and test compound conditions.

lung Col1a1 expression [2] = test: Precision cut lung slices of mice under chronic bleomycin exposure (vs pirfenidone and nintedanib); type: cell-based, mouse; details: slices cultured 7 days; nintedanib and pirfenidone at 10x therapeutic concentrations
Procedure: (§1) Mice (C57BL/6) were administered 3 U/kg of bleomycin (Teva Pharmaceuticals; North Wales, PA) on Day 0 and 1 U/kg of bleomycin on days 14, 28, 42 and 56 via oropharyngeal aspiration while under anesthesia. At day 70, 14 days following the final bleomycin insult, precision cut lung slices were obtained. Following euthanization, 2% low gelling temp agarose was injected into the mouse lungs via the trachea. […] The lobes were then subjected to precision slicing to obtain samples for culture using a microtome (Compresstome VF-300-0Z, Precisionary; Greenville, NC). Individual slices were distributed in a multiwell culture plate and cultured for 7 days under control (DMSO) and test compound conditions. The viability of the slices over the course of culturing was confirmed by WST-1 assay of mitochondrial activity.
During the culture period, slices in the control group were treated with DMSO and slices in the test group were treated with a DMSO solution of one of: compound 5; nintedanib; pirfenidone; a combination of nintedanib and compound 5; a combination of pirfenidone and compound 5; or the small molecule ALK5 inhibitor. Compound 5 was […] effective to equal or exceed its respective IC50 values at αvβ6 and αvβ1. The small molecule ALK5 inhibitor was analyzed at 10x its reported IC50 value. Nintendanib and pirfenidone were analyzed at concentrations 10x their reported therapeutic concentrations.

COL1A1 expression = test: PCLS from human IPF lung tissue, 7 days: COL1A1 expression; type: cell-based; details: Compound 5 200 nM, nintedanib 75 nM, pirfenidone 50 µM, 5-7 IPF lungs
Procedure: PCLS from 5-7 idopathic pulmonary fibrosis (IPF) lung tissue samples were cultured for seven days with one of: DMSO; Compound 5 at 200 nM; nintedanib at 75 nM; pirfenidone at 50 µm; a combination of Compound 5 at 200 nM and nintedanib at 75 nM; a combination of Compound 5 at 200 nM and pirfenidone at 50 µm; or an Alk5 inhibitor at 1 µm. […] FIG. 6D is a bar graph showing relative expression of COL1A1 in precision cut lung slices (PCLS) from idopathic pulmonary fibrosis (IPF) lung tissue upon exposure to Comopund 5, clinical standard of care compounds nintedanib (Nin) and pirfenidone (Pirf), and an ALK5 inhibitor, all versus DMSO control.
PCLS from a single IPF lung tissue sample were cultured for seven days with Compound 5 at concentrations of 200 pM, 2 nM, 60 nM, 200 nM, and 1 µM, along with 0.1% DMSO control and an Alk5 inhibitor at 1 µM. […] COL1A1 expression is also graphed for the PCLS in the presence of 0.1% DMSO control, and an Alk5 inhibitor at 1 µM.

[3] = test system: fibrosis-related gene expression in explanted human lung tissue from patients with idiopathic pulmonary fibrosis; test: nCounter Fibrosis Panel gene expression in precision cut lung slices from IPF explants; type: cell-based; details: IPF PCLS, 7 days, vs DMSO
From the text: Fibrosis-related gene expression in explanted human lung tissue from patients with idiopathic pulmonary fibrosis was examined in order to determine what impact combining Compound 5 treatment with standard-of-care drugs nintedanib or pirfenidone, has on the expression of such genes.
Samples used for this analysis are a subset (n = 4 of 7) of the lungs previously reported on in Decaris et al., Respir Res (2021) 22:265 (FIGS. 6 A and B). Briefly, tissue samples from patients with IPF were acquired at the time of lung transplantation. Precision cut lung slices were generated from the explants and cultured for 7 days in the presence of inhibitors (Compound 5, nintedanib, pirfenidone) at clinically relevant concentrations or vehicle (DMSO). Treated slices were lysed in mRNA-compatible buffer for gene expression analysis. For this study, the lysate from n = 6 slices per treatment per lung were pooled for analysis using the nCounter Fibrosis Panel (Nanostring) on the nCounter Max analyzer (Nanostring). This commercially available panel of 770 genes includes genes related to initial tissue damage response, chronic inflammation, proliferation of pro-fibrotic cells, and tissue modification leading to fibrotic disease. Technical quality control and normalization of raw Nanostring mRNA count data was performed using an R framework developed by Bhattacharya et al. (Bhattacharya A. et al., Brief Bioinform. 2021 May 20;22(3):bbaa163). The R packages limma (see URL www.bioconductor.org/packages/release/bioc/html/limma.html) and voom (Law, C.W. et al., Genome Biol. 2014 Feb 3;15(2):R29) were used to detect differentially expressed genes. Benjamini-Hochberg False Discovery Rate (FDR = 5%) was used to adjust p-values for multiple comparisons.

lung Col1a1 expression [4] = test: Precision cut lung slices of mice under chronic bleomycin exposure (single vs dual integrin inhibition); type: cell-based, mouse; details: slices cultured 7 days
Procedure: as §1, with “after” for “following”, “The viability of the slices over the course of culturing was confirmed by WST-1 assay of mitochondrial activity.” left out
During the culture period, slices in the control group were treated with DMSO and slices in the test group were treated with a DMSO solution of one of: the selective antibody αvβ6 inhibitor 3G9; the αvβ1-selective small molecule inhibitor; a combination of the selective antibody αvβ6 inhibitor 3G9 and the αvβ1-selective small molecule inhibitor; compound 5; and the small molecule ALK5 inhibitor. The selective αvβ1 and αvβ6 integrin inhibitors were analyzed at ≥ their respective IC90 concentrations for inhibition of TGF-beta activation. […] The small molecule ALK5 inhibitor was analyzed at 10x its reported IC50 value.

lung Col1a1 expression [5] = test: Precision cut lung slices from human IPF explants, 3 days; type: cell-based; details: 3G9 ≥400 ng/mL, compound 5 179 nM, ALK5 inhibitor 1 µM
From the text: Explanted lung tissue was obtained from human IPF subjects and inflated with agarose as described in the preceding examples. Biopsy cores were obtained from the agarose-inflated lung tissue. The biopsy cores were subjected to precision slicing to obtain several hundred µm thick. Individual slices were distributed in a multiwell culture plate and cultured for 3 days under control (DMSO) and test compound conditions. The viability of the slices over the course of culturing was confirmed by WST-1 assay of mitochondrial activity.

Which “fold increase in concentration over compound 5 needed to reduce lung slice Col1a1 expression by 50%” value ([1]; acute bleomycin injured lung slices) does the source give for Cc1ccc(=O)n(-c2ccccc2)c1 [pirfenidone, 5-methyl-1phenyl-2-1(H)-pyridone] here?
The value was 3,940 fold.

And the “lung Col1a1 expression vs DMSO control” value (lung Col1a1 expression [2])?
Its value is “slight increase”.

And the “reduction of COL1A1 expression” value (COL1A1 expression)?
Its value is “did not significantly reduce”.

And the “% Reduction of CDH2 expression” value [3]?
The value was -7.12%.

What about the “% Reduction of COL1A1 expression” value [3] of the same molecule?
Its value is 8.58%.

And the “% Reduction of COL5A3 expression” value [3]?
Its value is 23.95%.

What about the “% Reduction of ITGAS expression” value [3] of the same molecule?
The value was 26.21%.

What about the “% Reduction of THBS2 expression” value [3] of the same molecule?
The value was 21.20%.

What about the “logFC of ACACA expression” value [3] of the same molecule?
The value was 0.4392.

What about the “logFC of ACVRL1 expression” value [3] of the same molecule?
The value was -0.7278.

And the “logFC of ALDH7A1 expression” value [3]?
The value was 0.6119.

What about the “logFC of C6 expression” value [3] of the same molecule?
The value was 1.475.

And the “logFC of CD34 expression” value [3]?
The value was -0.8356.

What about the “logFC of CDH5 expression” value [3] of the same molecule?
The value was -1.0568.

And the “logFC of CFTR expression” value [3]?
Its value is 1.189.

And the “logFC of COL4A1 expression” value [3]?
The value was -0.7024.

And the “logFC of COL7A1 expression” value [3]?
The value was 0.6703.

And the “logFC of COL14A1 expression” value [3]?
The value was -0.7785.

And the “logFC of COX4I2 expression” value [3]?
The value was -0.7471.

And the “logFC of CXCL2 expression” value [3]?
The value was 0.778.

What about the “logFC of CXCL12 expression” value [3] of the same molecule?
Its value is -0.5918.

And the “logFC of CXCR4 expression” value [3]?
Its value is -0.8852.

And the “logFC of EGFR expression” value [3]?
Its value is 0.4764.

What about the “logFC of F11R expression” value [3] of the same molecule?
The value was 0.5803.

What about the “logFC of FGF19 expression” value [3] of the same molecule?
Its value is -1.14.

And the “logFC of GAS1 expression” value [3]?
The value was -0.6419.

What about the “logFC of GPC4 expression” value [3] of the same molecule?
Its value is 0.4613.

And the “logFC of GREM1 expression” value [3]?
The value was -0.7447.

And the “logFC of HADH expression” value [3]?
Its value is 0.4377.

And the “logFC of HAVCR1 expression” value [3]?
The value was -0.7313.

And the “logFC of ICAM1 expression” value [3]?
Its value is 0.4322.

What about the “logFC of IFNG expression” value [3] of the same molecule?
The value was -0.5853.

And the “logFC of KLF5 expression” value [3]?
Its value is 0.7343.

What about the “logFC of KNG1 expression” value [3] of the same molecule?
The value was -1.1.

What about the “logFC of LYN expression” value [3] of the same molecule?
Its value is 0.4785.

What about the “logFC of MET expression” value [3] of the same molecule?
The value was 1.096.

And the “logFC of MMP7 expression” value [3]?
Its value is 1.413.

And the “logFC of MMRN1 expression” value [3]?
The value was -0.9784.

And the “logFC of NOTCH4 expression” value [3]?
Its value is -0.7164.

What about the “logFC of OCLN expression” value [3] of the same molecule?
The value was 0.5956.

What about the “logFC of PDGFRB expression” value [3] of the same molecule?
Its value is -0.7514.

What about the “logFC of PECAM1 expression” value [3] of the same molecule?
The value was -0.9354.

What about the “logFC of PSENEN expression” value [3] of the same molecule?
The value was 0.4784.

What about the “logFC of PTGS2 expression” value [3] of the same molecule?
Its value is 0.9466.

And the “logFC of RELN expression” value [3]?
The value was -0.8283.

What about the “logFC of SAA1 expression” value [3] of the same molecule?
Its value is 1.653.

What about the “logFC of TEK expression” value [3] of the same molecule?
Its value is -0.8124.

What about the “logFC of WWC1 expression” value [3] of the same molecule?
Its value is 0.8127.

With Cc1cccc(-c2n[nH]cc2-c2ccc(F)c(-c3cnn(CCO)c3)c2)n1 [small molecule ALK5 inhibitor, 4-[2-Fluoro-5-[3-(6-methyl-2-pyridinyl)-1H-pyrazol-4-yl]phenyl]-1H-pyrazole-1-ethanol, reference compound] as the molecule, how does the “Type I Collagen gene Col1a1 expression vs DMSO control” value ([1]; slices cultured 3 days, integrin inhibitors at IC50, pan-αv and ALK5 inhibitors at 10x IC50) read?
The value was “greatest decrease”.

What about the “lung Col1a1 expression vs DMSO control” value (lung Col1a1 expression [4]) of the same molecule?
The value was “greatest decrease”.

And the “lung Col1a1 expression vs DMSO control” value (lung Col1a1 expression [2])?
The value was “substantial, statistically significant”.

What about the “lung Col1a1 expression vs DMSO control” value (lung Col1a1 expression [5]) of the same molecule?
Its value is “substantial, statistically significant”.
